Experimental data from publication PMC12857768 (Journal of medicinal chemistry, 2024).
“Also recorded” adds a separate entry of the source.

Assays:
skin lesions = assay: Skin lesions / adverse side effects in mice during the in vivo study; parameters: species or system C57BL/6 female mice; conditions: 10 mg/kg oral gavage 5 times per week
Pyk2 kinase = Pyk2 kinase (Homo sapiens, UniProt Q14289); assay: Pyk2 kinase activity assay; type: biochemical; conditions: for Pyk2 kinase inhibitory effect (in words): kinase inhibitory assay
Sequence of Pyk2 kinase (Q14289 whole entry): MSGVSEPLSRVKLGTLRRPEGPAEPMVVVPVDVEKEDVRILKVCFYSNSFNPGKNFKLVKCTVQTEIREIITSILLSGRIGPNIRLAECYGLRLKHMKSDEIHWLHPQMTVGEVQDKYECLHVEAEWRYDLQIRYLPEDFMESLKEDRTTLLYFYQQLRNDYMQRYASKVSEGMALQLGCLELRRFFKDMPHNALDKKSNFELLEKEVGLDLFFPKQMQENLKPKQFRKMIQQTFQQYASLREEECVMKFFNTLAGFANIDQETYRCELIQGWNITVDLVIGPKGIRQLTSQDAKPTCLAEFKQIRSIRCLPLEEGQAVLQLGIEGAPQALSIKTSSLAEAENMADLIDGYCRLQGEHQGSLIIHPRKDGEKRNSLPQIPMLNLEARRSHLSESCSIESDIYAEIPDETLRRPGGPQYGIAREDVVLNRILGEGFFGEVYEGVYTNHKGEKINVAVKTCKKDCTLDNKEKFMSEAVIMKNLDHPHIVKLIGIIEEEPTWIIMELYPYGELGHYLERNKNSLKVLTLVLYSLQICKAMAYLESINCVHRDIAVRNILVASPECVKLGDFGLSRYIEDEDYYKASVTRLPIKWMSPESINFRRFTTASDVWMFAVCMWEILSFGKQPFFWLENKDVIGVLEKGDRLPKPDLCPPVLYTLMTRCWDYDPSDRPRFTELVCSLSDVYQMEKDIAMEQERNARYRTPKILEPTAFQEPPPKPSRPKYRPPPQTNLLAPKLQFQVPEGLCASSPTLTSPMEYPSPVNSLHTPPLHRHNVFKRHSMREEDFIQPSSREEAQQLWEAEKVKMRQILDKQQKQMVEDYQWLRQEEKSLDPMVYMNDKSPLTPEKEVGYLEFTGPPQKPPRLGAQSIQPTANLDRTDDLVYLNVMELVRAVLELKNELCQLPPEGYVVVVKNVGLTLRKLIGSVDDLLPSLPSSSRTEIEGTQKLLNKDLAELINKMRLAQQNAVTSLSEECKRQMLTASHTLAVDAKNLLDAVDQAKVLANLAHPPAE

[1] = tested on: circulating organ toxicity biomarkers; assay: In vivo toxicity: circulating markers of organ toxicities; parameters: species or system mice; conditions: serum/plasma at end of study, 10 mg/kg oral gavage, N = 9-10
GC-induced bone loss = conditions: murine model of GC excess; previous studies; cited from earlier work

Structure (SMILES) | Skin lesions / adverse side effects (in words) (skin lesions) | Pyk2 kinase inhibitory effect (in words) (Pyk2 kinase) | Circulating organ toxicity biomarkers vs control groups ([1]; 10 mg/kg) | IC50 (Pyk2 kinase) | Circulating organ toxicity biomarkers vs control groups [1] | Prevention of GC-induced bone loss (GC-induced bone loss)
CNC(=O)c1ccccc1Nc1nc(Nc2ccc(NC(=O)CCCCC(=O)NCCCC(O)(P(=O)(O)O)P(=O)(O)O)cc2OC)ncc1Cl [BT-Amide, (4-(6-((4-((5-Chloro-4-((2-(methylcarbamoyl)phenyl)amino)pyrimidin-2-yl)amino)-3-methoxyphenyl)amino)-6-oxohexanamido)-1-hydroxybutane-1,1-diyl)bis(phosphonic Acid)] | no adverse side effects were observed | moderate inhibitory effects | no significant difference; also recorded: None of the markers were significantly elevated above control levels | – | – | –
CNC(=O)c1ccccc1Nc1nc(Nc2ccc(N3CCC(OC(=O)CCCCC(=O)NCCCC(O)(P(=O)(O)O)P(=O)(O)O)CC3)cc2OC)ncc1Cl [BT-Ester, (4-(6-((1-(4-((5-Chloro-4-((2-(methylcarbamoyl)phenyl)amino)pyrimidin-2-yl)amino)-3-methoxyphenyl)piperidin-4-yl)oxy)-6-oxohexanamido)-1-hydroxybutane-1,1-diyl)bis(phosphonic Acid)] | did not develop skin lesions | low inhibition | – | 119 ± 41 nM | None of the markers were significantly elevated above control levels | –
CN(c1ccccc1CNc1nc(Nc2ccc3c(c2)CC(=O)N3)ncc1C(F)(F)F)S(C)(=O)=O [PF-431396] | – | – | – | – | – | prevents GC-induced bone loss
